According to patent US20090176817A1, “Method of Treatment of Diarrhea-Predominant Irritable Bowel Syndrome in a Subject” (priority 2005, published 2009):
Like-named read-outs stand apart in the source and are kept apart here. Blank lines part the entries; values can stand above or below the compound they belong to.

Key:
[1] = Study S.241.1.104: Ortho Tri-Cyclen pharmacokinetics with cilansetron 2 mg TID; format: in vivo, human; conditions: for Cmin / Cmax / AUC / half-life: arith. mean; for AUC: read-out: AUC(0-τ); for half-life: read-out: T½ (converted)
Excerpt: The effects of concomitant administration of cilansetron and a commonly used oral contraceptive, Ortho Tri-Cyclen (ORC), on the pharmacokinetics and pharmacodynamics of ORC and the pharmacokinetics of cilansetron has been evaluated in a randomized, double-blind, placebo-controlled, multiple-dose, 2-period, crossover study in 20 healthy, female subjects, aged 19 to 42 years. Subjects received the following two treatments during each of two 28-day study periods (2 ORC cycles) in a randomized, crossover fashion: Treatment B (reference treatment)−ORC on Days 1-28 (standard ORC cycle)+placebo TID on Days 14-20 and a single dose of placebo on Day 21; Treatment A (test treatment)−ORC on Days 1-28 (standard ORC cycle)+cilansetron 2 mg TID on Days 14-20 and a single dose of cilansetron 2 mg on Day 21. […] For evaluation of the effect of concomitant cilansetron on the pharamacodynamics of ORC, blood samples were collected prior to morning dosing on Days 18, 19, 20, 26, 27, and 28 for measurement of serum progesterone (PG), luteinizing hormone (LH), and follicle stimulating hormone (FSH) concentrations, and untransformed data were compared statistically between treatments.

[2] = tested on: cilansetron metabolism (ketoconazole 25 μM used as general inhibitor); assay: in vitro; conditions: human, human hepatic microsomes, probe cilansetron (100 μM), overall metabolism
[3] = tested on: CYP3A4 (cilansetron metabolism); assay: in vitro; conditions: human, human hepatic microsomes, probe cilansetron (100 μM), overall metabolism
[4] = tested on: CYP3A4 (formation of 4-hydroxy metabolites of cilansetron); assay: in vitro; conditions: human, human hepatic microsomes, probe cilansetron (100 μM), formation of the 4-hydroxy metabolites
[5] = tested on: patients with malignant tumors; assay: Study S.241.2.101: cisplatin-induced nausea and vomiting; format: in vivo, human; conditions: IV 8 mg TID
Experimental: (§1) The effect of cilansetron on nausea and vomiting has been studied in 2 clinical studies in cancer patients. Both studies were randomized, singleblind, positive-controlled, parallel-group, pilot studies in male and female patients with malignant tumors, to investigate the effect of cilansetron on cytostatic-induced nausea and vomiting. In both studies, patients were on their first cycle of chemotherapy and were being treated with cisplatin (275 mg/m2 as a single dose in Study S.24 1.2.10 1 and […] for 5 days in Study K.24 1 S O 17). Patients in Study S.24 1.2.10 1 were aged 40-74 years (ITT population=16) and patients in Study K.24 1 S O 17 were aged 39-74 years (ITT population=19). In both studies, patients were randomized to receive either […] or IV ondansetron 8 mg TID for 1 day (Study S.241.2.101) or 5 days (Study K.2415017), corresponding to the day(s) of their cisplatin administration. If nausea and vomiting were completely controlled on a treatment day, the second and/or third doses of cilansetron or ondansetron could be omitted on that day. The primary efficacy parameter in both studies was the combination of the occurrence of vomiting and the severity of nausea, with a responder being defined as a patient with no vomiting and not more than mild nausea during the treatment day(s). […]

[6] = tested on: patients with malignant tumors; assay: Study K.241.5017: cisplatin-induced nausea and vomiting; format: in vivo, human; conditions: IV 8 mg TID
Experimental: as §1

[7] = female, human, plasma, oral, ORC + Cilansetron 2 mg TID, Day 21
[8] = female, human, plasma, oral, ORC + Placebo, Day 21

Cmin ([1]; ORC + Cilansetron 2 mg TID, Day 21): 0.022 ng/mL
Cmin ([1]; ORC + Placebo, Day 21): 0.024 ng/mL
Cmax [1, 7]: 0.144 ng/mL
AUC [1, 7]: 1.21 ng·h/mL
half-life [1, 7]: 20.9 h
Tmax ([1]; female, human, plasma, oral, ORC + Cilansetron 2 mg TID, Day 21, median): 1.25 h
Cmax [1, 8]: 0.156 ng/mL
AUC [1, 8]: 1.32 ng·h/mL
half-life [1, 8]: 21.2 h
Mean AUC(0-τ) decrease with concomitant cilansetron ([1]; in vivo): 10%
Mean Cmax decrease with concomitant cilansetron ([1]; in vivo): 8%
Compound: C#C[C@]1(O)CC[C@H]2[C@@H]3CCc4cc(O)ccc4[C@H]3CC[C@@]21C [EE, ethinyl estradiol]

inhibition at 25 μM [2]: 93%
inhibition at 1 μM [3]: ~70%
inhibition at 1 μM [4]: 47%
Compound: CC(=O)N1CCN(c2ccc(OCC3COC(Cn4ccnc4)(c4ccc(Cl)cc4Cl)O3)cc2)CC1 (stereo not shown) [ketoconazole]

Compound: Cc1nccn1CC1CCc2c(c3ccccc3n2C)C1=O (stereo not shown) [ondansetron, reference compound]
Response rate [5]: 25.0%
Response rate [6]: 60.0%
